Results as given in patent publication US20160346313A1, “USES OF OLIGOURONATES IN CANCER TREATMENT” (NORWEGIAN UNIVERSITY OF SCIENCE AND TECHNOLOGY, priority 2013, published 2016).

Test system: Capan-2 human pancreas tumour xenograft
Assay: Capan-2 human pancreas tumour xenograft model: tumour weight, with statistical analysis (ANOVA by day, Eav, log scale, exponential growth model)
Format: in vivo, Female Athymic Nude mice
Settings: for Tumour weight, Difference vs Vehicle / Tumour weight, Estimate: Q3Dx4, G-Block IV, gemcitabine IP; for Estimate (mg), tumour weight geometric mean / Ratio vs Vehicle: Gemcitabine 5
Method: Efficacy was assessed by comparison of tumour weights of treated groups with the vehicle control group on Day 11 and 74 and between combination groups and their respective single agents on Day 11 and 74.
G-Block (Lot #PolyG 230712-Dp10, 95%G) was received as a white hygroscopic amorphous powder from NTNU Technology Transfer AS (Trondheim, Norway) and stored desiccated at room temperature until use. NTNU's G-Block was dissolved in MilliQ water to a concentration of 70 mg/ml to be used as the stock solution. This solution was used to deliver a dose of approximately 560 mg/kg in a 200 μl fixed dose. The 70 mg/ml solution was then diluted in 0.9% 150 mM NaCl (B. Braun Medical; Irvine, Calif.) to deliver doses of approximately 200 mg/kg, 75 mg/kg, 25 mg/kg, and 5 mg/kg in a 200 μL fixed dose volume. All dosing calculations assume a 25 g animal. NTNU's G-Block 70 mg/ml stock solution was formulated at the beginning of the study and used for dilutions before each dose, sterile filtered, and stored at 4° C. between doses. All unused dosing mixture was properly disposed of at TD2 after the study ended.
All unused dosing mixture was properly disposed of at TD2 after each dose.
Vehicle control was dosed with a solution of 0.9% 150 mM NaCl at a 10 ml/kg dose volume. Vehicle control was stored at room temperature.
Capan-2 human pancreas tumour xenograft cell line was received from ATCC (Manassas, Va.). Cultures were maintained in McCoy's 5A medium (Hyclone, Logan, Utah) supplemented with 10% fetal bovine serum (Omega Scientific; Tarzana, Calif.), and housed in a 5% CO2 atmosphere. The cultures were expanded in tissue culture flasks at a 1:5 split ratio until a sufficient amount of cells were harvested.
Female Athymic Nude mice (Hsd:Athymic Nude-Foxn1^nu) were supplied by Harlan (Germantown, N.Y.). Mice were received at 4 weeks of age. All mice were acclimated prior to handling. The mice were housed in microisolator cages (Lab Products, Seaford, Del.) and maintained under specific pathogen-free conditions. The mice were fed Tekland Global Diet® 2920× irradiated laboratory animal diet (Harlan, Indianapolis, Ind.) and autoclaved water was freely available. All procedures were carried out under the institutional guidelines of TGen Drug Development Institutional Animal Care and Use Committee (Protocol #13046).
Female mice were inoculated subcutaneously in the right flank with 0.1 mL of a 50% RPMI/50% Matrigel™ (BD Biosciences, Bedford, Mass.) mixture containing a suspension of Capan-2 tumor cells (approximately 5.0×10^6 cells/mouse). Seven days following inoculation, tumors were measured using calipers and tumor weight was calculated using the animal study management software, Study Director V.2.1.1 (Study Log)^1. Eighty mice with tumor sizes of 101-194 mg were randomized into eight groups of ten mice each by random equilibration with a mean of approximately 140 mg, using Study Director (Day 1). Body weights were recorded when the mice were randomized and were taken twice weekly thereafter in conjunction with tumor measurements. Dosing was performed as described below in Table 1.
All groups were terminated on Day 74. Mice were sacrificed prior to study end if tumor weight exceeded 1500 mg. Upon necropsy, tumors were excised from all animals in all groups and bisected in halves, placed in formalin vials (Azer Scientific/VWR; Franklin Lakes, N.J.) then fixed for approximately 24 hours before transferring to ethanol. Formalin-fixed tissues were embedded in paraffin, processed, and H & E stained.
The following concerns a statistical analysis of tumour weights in the study reported in Example 2. […] Tumour weight and body weights were assessed Day 1 and then twice weekly up to last assessment on Day 74.
Treatments were compared using an analysis of variance (ANOVA) model with fixed factor treatment and tumour weight at Day 1 as a covariate and assuming equal variance for each assessment (Day 1 model without covariate).

[1] = 0-19 days, label number = dose mg/kg, Q3Dx4
[2] = 0-29 days, label number = dose mg/kg, Q3Dx4
[3] = 0-39 days, label number = dose mg/kg, Q3Dx4
[4] = 0-50 days, label number = dose mg/kg, Q3Dx4
[5] = 0-60 days, label number = dose mg/kg, Q3Dx4
[6] = Day 1 (randomisation), label number = dose mg/kg
[7] = Day 4, label number = dose mg/kg
[8] = Day 8, label number = dose mg/kg
[9] = Day 11, label number = dose mg/kg
[10] = Day 16, label number = dose mg/kg
[11] = Day 19, label number = dose mg/kg
[12] = Day 22, label number = dose mg/kg
[13] = Day 25, label number = dose mg/kg
[14] = Day 29, label number = dose mg/kg
[15] = Day 32, label number = dose mg/kg
[16] = Day 36, label number = dose mg/kg
[17] = Day 39, label number = dose mg/kg
[18] = Day 43, label number = dose mg/kg
[19] = Day 46, label number = dose mg/kg
[20] = Day 50, label number = dose mg/kg
[21] = Day 53, label number = dose mg/kg
[22] = Day 57, label number = dose mg/kg
[23] = Day 60, label number = dose mg/kg
[24] = Day 64, label number = dose mg/kg
[25] = Day 67, label number = dose mg/kg
[26] = Day 71, label number = dose mg/kg
[27] = Day 74, label number = dose mg/kg

Compound: Nc1ccn([C@@H]2O[C@H](CO)[C@@H](O)C2(F)F)c(=O)n1 [Gemcitabine 5, Gemcitabine]
- Eau, 0-19 (average tumour weight = AUC / interval length), Estimate [1]: 173.4 mg
- Eau, 0-19, Difference vs Vehicle [1]: -67.6 mg
- Eau, 0-29 (average tumour weight = AUC / interval length), Estimate [2]: 195.5 mg
- Eau, 0-29, Difference vs Vehicle [2]: -93.6 mg
- Eau, 0-39 (average tumour weight = AUC / interval length), Estimate [3]: 231.3 mg
- Eau, 0-39, Difference vs Vehicle [3]: -118.1 mg
- Eau, 0-50 (average tumour weight = AUC / interval length), Estimate [4]: 292.1 mg
- Eau, 0-50, Difference vs Vehicle [4]: -121.2 mg
- Eau, 0-60 (average tumour weight = AUC / interval length), Estimate [5]: 349.7 mg
- Eau, 0-60, Difference vs Vehicle [5]: -118.4 mg
- Consistent statistically significant effect versus Vehicle on tumour weight, up to Day (ANOVA by day): ≤ 36
- Eav intervals with statistically significant effects versus Vehicle, up to (ANOVA of Eav): up to 50 days
- Tumour weight, Difference vs Vehicle [6]: -0.0 mg
- Tumour weight, Estimate [6]: 140.7 mg
- Estimate (mg), tumour weight geometric mean (Day 1): 138.6 mg
- Ratio vs Vehicle (Day 1): 1.00
- Estimate (mg), tumour weight geometric mean (Day 4): 186.7 mg
- Tumour weight, Difference vs Vehicle [7]: 14.1 mg
- Tumour weight, Estimate [7]: 189.8 mg
- Estimate (mg), tumour weight geometric mean (Day 8): 157.0 mg
- Ratio vs Vehicle (Day 8): 0.71
- Tumour weight, Difference vs Vehicle [8]: -69.0 mg
- Tumour weight, Estimate [8]: 161.6 mg
- Estimate (mg), tumour weight geometric mean (Day 11): 167.8 mg
- Ratio vs Vehicle (Day 11): 0.64
- Tumour weight, Difference vs Vehicle [9]: -111.0 mg
- Tumour weight, Estimate [9]: 174.2 mg
- Estimate (mg), tumour weight geometric mean (Day 16): 172.5 mg
- Ratio vs Vehicle (Day 16): 0.63
- Tumour weight, Difference vs Vehicle [10]: -116.3 mg
- Tumour weight, Estimate [10]: 181.4 mg
- Estimate (mg), tumour weight geometric mean (Day 19): 185.1 mg
- Ratio vs Vehicle (Day 19): 0.64
- Tumour weight, Difference vs Vehicle [11]: -119.5 mg
- Tumour weight, Estimate [11]: 194.7 mg
- Estimate (mg), tumour weight geometric mean (Day 22): 216.1 mg
- Ratio vs Vehicle (Day 22): 0.67
- Tumour weight, Difference vs Vehicle [12]: -122.5 mg
- Tumour weight, Estimate [12]: 225.0 mg
- Estimate (mg), tumour weight geometric mean (Day 25): 233.4 mg
- Ratio vs Vehicle (Day 25): 0.64
- Tumour weight, Difference vs Vehicle [13]: -157.9 mg
- Tumour weight, Estimate [13]: 244.0 mg
- Estimate (mg), tumour weight geometric mean (Day 29): 258.9 mg
- Ratio vs Vehicle (Day 29): 0.64
- Tumour weight, Difference vs Vehicle [14]: -164.9 mg
- Tumour weight, Estimate [14]: 273.6 mg
- Estimate (mg), tumour weight geometric mean (Day 32): 286.5 mg
- Ratio vs Vehicle (Day 32): 0.62
- Tumour weight, Difference vs Vehicle [15]: -208.5 mg
- Tumour weight, Estimate [15]: 310.1 mg
- Estimate (mg), tumour weight geometric mean (Day 36): 324.4 mg
- Ratio vs Vehicle (Day 36): 0.68
- Tumour weight, Difference vs Vehicle [16]: -190.3 mg
- Tumour weight, Estimate [16]: 360.9 mg
- Estimate (mg), tumour weight geometric mean (Day 39): 349.9 mg
- Ratio vs Vehicle (Day 39): 0.78
- Tumour weight, Difference vs Vehicle [17]: -165.4 mg
- Tumour weight, Estimate [17]: 389.6 mg
- Estimate (mg), tumour weight geometric mean (Day 43): 439.5 mg
- Ratio vs Vehicle (Day 43): 0.84
- Tumour weight, Difference vs Vehicle [18]: -138.1 mg
- Tumour weight, Estimate [18]: 506.6 mg
- Estimate (mg), tumour weight geometric mean (Day 46): 460.6 mg
- Ratio vs Vehicle (Day 46): 0.86
- Tumour weight, Difference vs Vehicle [19]: -107.4 mg
- Tumour weight, Estimate [19]: 536.4 mg
- Estimate (mg), tumour weight geometric mean (Day 50): 485.0 mg
- Ratio vs Vehicle (Day 50): 0.85
- Tumour weight, Difference vs Vehicle [20]: -130.4 mg
- Tumour weight, Estimate [20]: 573.5 mg
- Estimate (mg), tumour weight geometric mean (Day 53): 530.7 mg
- Ratio vs Vehicle (Day 53): 0.93
- Tumour weight, Difference vs Vehicle [21]: -61.2 mg
- Tumour weight, Estimate [21]: 653.0 mg
- Estimate (mg), tumour weight geometric mean (Day 57): 516.6 mg
- Ratio vs Vehicle (Day 57): 0.90
- Tumour weight, Difference vs Vehicle [22]: -144.3 mg
- Tumour weight, Estimate [22]: 626.6 mg
- Estimate (mg), tumour weight geometric mean (Day 60): 539.6 mg
- Ratio vs Vehicle (Day 60): 1.00
- Tumour weight, Difference vs Vehicle [23]: -84.5 mg
- Tumour weight, Estimate [23]: 680.5 mg
- Estimate (mg), tumour weight geometric mean (Day 64): 633.3 mg
- Tumour weight, Difference vs Vehicle [24]: 76.1 mg
- Tumour weight, Estimate [24]: 869.5 mg
- Estimate (mg), tumour weight geometric mean (Day 67): 695.7 mg
- Tumour weight, Difference vs Vehicle [25]: 85.1 mg
- Tumour weight, Estimate [25]: 952.8 mg
- Estimate (mg), tumour weight geometric mean (Day 71): 746.4 mg
- Tumour weight, Difference vs Vehicle [26]: 54.2 mg
- Tumour weight, Estimate [26]: 1078.5 mg
- Estimate (mg), tumour weight geometric mean (Day 74): 746.3 mg
- Ratio vs Vehicle (Day 74): 1.33
- Tumour weight, Difference vs Vehicle [27]: 157.2 mg
- Tumour weight, Estimate [27]: 1009.1 mg
- Estimated differences vs Vehicle in growth rates (exponential model y=C*exp(a*t), t in days, data up to 60 days, label number = dose mg/kg): −0.0042
- Estimated differences between active treatments in growth rates, vs G-B 560 (exponential model, data up to 60 days, contrast vs G-Block 560 mg/kg alone): −0.0015
